Where two headings read alike, the source gives them in different places.
Tests used:
[1] = molecular target: human GhrR (hGhrR-eYFP, HEK293 cell membranes) (Homo sapiens, UniProt Q92847); assay: Competitive radioligand binding assay with [125I-His9]ghrelin at hGhrR membranes; settings: for fold higher IC50 than (S)-9: hGhrR binding IC50 relative to starting compound (S)-9
[2] = HPLC-based chromatographic hydrophobicity index on immobilized artificial membranes (CHI IAM); assay type: physicochemical; settings: IAM PC DD2 column, acetonitrile / 50 mM ammonium acetate gradient
From the text: Physicochemical properties of a drug such as lipophilicity and non-specific binding to membranes and plasma proteins are crucial parameters of a potential radiotracer, in particular if it is supposed to pass the blood brain barrier (BBB). The lipophilicity (logD7.4) was estimated using the commercially available ACD/Labs-12.5 software and the non-specific binding was estimated by the high-performance liquid chromatography (HPLC)-based hydrophobicity index at immobilized artificial membranes (CHI IAM) for seven fluorine substituted candidate molecules and (S)-13 without fluorine (Table 3).
The chromatographic hydrophobicity index on immobilized artificial membranes (CHI IAM) was experimentally determined by a HPLC method described by Valko and co-workers using a IAM PC DD2 column (100 × 4.6 mm, […], Regis Technologies, IL, USA), a gradient of acetonitrile, and 50 mM ammonium acetate as eluent and acetanilide, acetophenone, 1,4-dinitrobenzene, anisole propiophenone, valerophenone, and octanophenone as references.

[3] = molecular target: T1, hGhrR (COS7 cells stably transfected with hGhrR) (Homo sapiens, UniProt Q92847); assay: Inositol phosphate accumulation assay, antagonistic potency with 10^-8 M ghrelin; assay type: cell-based; settings: for Emax: COS-7, read-out: Emax (antagonistic efficacy)
T1 construct: expressed in transfected cells
T1 sequence (Q92847 whole entry): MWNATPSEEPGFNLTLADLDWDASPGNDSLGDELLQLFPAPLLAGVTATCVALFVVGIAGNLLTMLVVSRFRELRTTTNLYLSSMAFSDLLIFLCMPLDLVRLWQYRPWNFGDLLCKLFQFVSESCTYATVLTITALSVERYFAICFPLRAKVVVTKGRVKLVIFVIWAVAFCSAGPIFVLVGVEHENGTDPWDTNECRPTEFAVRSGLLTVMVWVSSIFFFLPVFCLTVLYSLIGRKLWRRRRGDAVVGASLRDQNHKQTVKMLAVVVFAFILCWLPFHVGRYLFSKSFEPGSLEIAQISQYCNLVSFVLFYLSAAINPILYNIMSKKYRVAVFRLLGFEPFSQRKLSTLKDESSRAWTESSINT
Experimental: Antagonistic properties at the hGhrR
antagonistic potency in an inositol phosphate accumulation assay (Table S1). The receptor was
Table S1. Inositol phosphate accumulation assay to determine antagonistic potencies of candidate
Compounds were analyzed by inositol phosphate accumulation in COS7 cells stably

[4] = molecular target: hGhrR (COS7 cells stably expressing hGhrR-eYFP) (Homo sapiens, UniProt Q92847); assay: cell-based; settings: for Emax: COS-7, mean ± SEM, refers to ghrelin Emax as 100%, 0% = constitutive receptor activity
Chain of hGhrR (COS7 cells stably expressing hGhrR-eYFP) (Q92847 whole entry): as above

rat σ2 receptor = molecular target: T2, rat σ2 receptor (Rattus norvegicus, UniProt Q5U3Y7); assay: Selectivity radioligand displacement, [3H]DTG, rat liver homogenate; assay type: binding; settings: [3H]DTG + 1 µM dextrallorphan
T2 construct: rat σ2 receptor = rat liver homogenate; from tissue; host or cells: rat liver homogenate
T2 sequence (Q5U3Y7 1-176): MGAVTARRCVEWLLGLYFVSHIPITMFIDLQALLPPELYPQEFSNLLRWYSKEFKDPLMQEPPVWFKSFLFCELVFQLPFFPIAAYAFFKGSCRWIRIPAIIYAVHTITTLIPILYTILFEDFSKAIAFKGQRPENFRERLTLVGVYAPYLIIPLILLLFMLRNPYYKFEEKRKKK
Experimental: […]
(§1) The incubations were terminated by rapid filtration via glass-fiber filters presoaked in PEI (0.3%, 60 min at rt), and the filter-bound radioactivity was counted by liquid scintillation counting (Tricarb, PerkinElmer).

human α3β4 nAChR = molecular target: T3, human α3β4 nAChR (Homo sapiens, UniProt P30926+P32297); assay: Selectivity radioligand displacement, [3H]epibatidine, transfected HEK cells; assay type: binding; settings: read-out: Ki at α3β4 nAChRs
T3 construct: expressed in transfected cells; host or cells: HEK cells (by courtesy of Dominik Feuerbach, Novartis), homogenate
T3 sequence (P32297 32-505): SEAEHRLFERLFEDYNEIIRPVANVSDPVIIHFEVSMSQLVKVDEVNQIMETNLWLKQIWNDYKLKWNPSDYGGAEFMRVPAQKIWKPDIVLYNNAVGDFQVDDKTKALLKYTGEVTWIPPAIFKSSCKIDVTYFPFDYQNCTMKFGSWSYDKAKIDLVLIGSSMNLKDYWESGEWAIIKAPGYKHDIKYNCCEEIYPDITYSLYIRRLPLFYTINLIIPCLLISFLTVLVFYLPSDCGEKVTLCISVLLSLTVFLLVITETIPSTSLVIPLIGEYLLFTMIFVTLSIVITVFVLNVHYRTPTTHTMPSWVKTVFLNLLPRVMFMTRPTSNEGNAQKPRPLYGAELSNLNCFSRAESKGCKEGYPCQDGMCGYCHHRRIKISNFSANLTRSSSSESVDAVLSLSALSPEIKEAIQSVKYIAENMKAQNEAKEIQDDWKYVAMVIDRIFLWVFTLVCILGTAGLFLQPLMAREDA
T3 sequence (P30926 22-498): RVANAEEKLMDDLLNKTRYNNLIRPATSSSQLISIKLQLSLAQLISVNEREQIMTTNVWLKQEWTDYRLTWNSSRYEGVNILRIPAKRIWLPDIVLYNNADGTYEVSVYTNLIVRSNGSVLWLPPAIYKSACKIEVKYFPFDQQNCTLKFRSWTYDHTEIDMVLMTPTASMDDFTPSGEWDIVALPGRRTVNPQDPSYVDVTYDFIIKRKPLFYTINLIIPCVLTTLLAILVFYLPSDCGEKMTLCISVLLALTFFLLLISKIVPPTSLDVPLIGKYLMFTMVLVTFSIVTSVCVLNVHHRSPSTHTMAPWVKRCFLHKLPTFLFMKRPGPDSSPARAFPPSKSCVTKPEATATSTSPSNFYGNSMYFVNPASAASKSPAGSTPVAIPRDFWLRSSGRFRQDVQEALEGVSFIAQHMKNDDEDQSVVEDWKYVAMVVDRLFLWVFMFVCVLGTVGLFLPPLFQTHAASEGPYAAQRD
Experimental: […]
as §1

[5] = 5 min pre-stimulation with compound, then 10^-8 M ghrelin, read-out: IC50 (antagonistic potency)
[6] = EC50, 2 h stimulation in absence of ghrelin, COS7-hGhrR
[7] = pEC50, mean ± SEM, 2 h stimulation in absence of ghrelin

Chain of human GhrR (hGhrR-eYFP, HEK293 cell membranes) (Q92847 whole entry): as the sequence (Q92847 whole entry) above

IC50 [1] | CHI IAM [2] | IC50 [3, 5] | Emax [3] | Emax [4] | EC50 [4, 6] | EC50 [4, 7] | Ki (rat σ2 receptor) | fold higher IC50 than (S)-9 [1] | Ki (human α3β4 nAChR) | IC50 ([3]; mean ± SEM, with 10^-8 M ghrelin, read-out: pIC50 (antagonistic potency) (converted)) | SMILES
3.89 nM | 42.8 | 17.5 nM | 45 ± 5% | ~60% | 0.6 nM | 0.55 nM | 53 ± 7 nM |  |  |  | Cc1nc2ccc(Oc3ccc(Br)cc3F)nc2c(=O)n1C[C@@H]1CCCN(C(C)C)C1 [(R)-9, (R)-6-(4-Bromo-2-fluorophenoxy)-3-((1-isopropylpiperidin-3-yl)methyl)-2-methylpyrido[3,2-d]pyrimidin-4(3H)-one]
69 nM | 39.6 | 345 nM | 22 ± 4% | ~60% |  | 1.58 nM |  | about 30 fold |  |  | Cc1nc2ccc(Oc3ccc(Br)cc3F)nc2c(=O)n1C[C@H]1CCCN(CCF)C1 [(S)-10, (S)-6-(4-Bromo-2-fluorophenoxy)-3-((1-(2-fluoroethyl)piperidin-3-yl)methyl)-2-methylpyrido[3,2-d]pyrimidin-4(3H)-one]
66 nM | 42.2 | 349 nM | 56 ± 10% | ~60% |  | 2.88 nM |  | about 30 fold | 27 ± 8 nM |  | Cc1nc2ccc(Oc3ccc(Br)cc3F)nc2c(=O)n1C[C@H]1CCCN(CCCF)C1 [(S)-11, (S)-6-(4-Bromo-2-fluorophenoxy)-3-((1-(3-fluoropropyl)piperidin-3-yl)methyl)-2-methylpyrido[3,2-d]pyrimidin-4(3H)-one]
574 nM | 43.3 |  |  |  |  |  |  |  | 64 ± 14 nM |  | Cc1nc2ccc(Oc3ccc(Br)cc3F)nc2c(=O)n1C[C@H]1CCCN(CCCCF)C1 [(S)-12, (S)-6-(4-Bromo-2-fluorophenoxy)-3-((1-(4-fluorobutyl)piperidin-3-yl)methyl)-2-methylpyrido[3,2-d]pyrimidin-4(3H)-one]
12.6 nM | 42.8 | 207 nM | 31 ± 5% | ~60% | 1.4 nM | 1.35 nM |  |  |  | 204 nM | Cc1nc2ccc(Oc3ccc(Br)cc3F)nc2c(=O)n1C[C@H]1CCCN(C(C)CF)C1 (stereo partly drawn) [(S)-13, 6-(4-Bromo-2-fluorophenoxy)-3-(((3S)-1-(1-fluoropropan-2-yl)piperidin-3-yl)methyl)-2-methylpyrido[3,2-d]pyrimidin-4(3H)-one]
12.3 nM | 42.8 | 123 nM | 57 ± 6% | 42 ± 4% |  | 2.14 nM |  |  |  |  | Cc1nc2ccc(Oc3ccc(Br)cc3)nc2c(=O)n1C[C@H]1CCCN(C(C)C)C1 [(S)-14]
2.69 nM | 42.3 | 28.7 nM | 65 ± 5% | 40 ± 4% |  | 1.02 nM |  |  |  |  | CC(C)N1CCC[C@H](Cn2cnc3ccc(Oc4ccc(Br)cc4F)nc3c2=O)C1 [(S)-16, (S)-6-(4-Bromo-2-fluorophenoxy)-3-((1-isopropylpiperidin-3-yl)methyl)pyrido[3,2-d]pyrimidin-4(3H)-one]
151 nM |  |  |  |  |  |  |  |  |  |  | CC(C)N1CCC[C@H](Cn2c(F)nc3ccc(Oc4ccc(Br)cc4F)nc3c2=O)C1 [(S)-17, (S)-6-(4-Bromo-2-fluorophenoxy)-2-fluoro-3-((1-isopropylpiperidin-3-yl)methyl)pyrido[3,2-d]pyrimidin-4(3H)-one]

From publication PMC5412352 (International Journal of Molecular Sciences, 2017)
